Assays:
[1] = biological target: T1, FKBP12 V55G-HA / GST-mTOR FRB domain ternary complex (Homo sapiens, UniProt P42345+P62942, V56G); experiment: TR-FRET ternary complex formation, FKBP12 V55G with mTOR FRB; type: binding; details: FKBP12 V55G + mTOR FRB, n = 3, read-out: EC50 of ternary complex induction, FKBP12 V55G
T1 construct: recombinant HA-tagged wild-type or V55G mutant FKBP12 with GST-tagged mTOR FRB domain; 8xHis (cleaved yes); made in house; host or cells: E. coli BL21 (DE3) for FKBP12
T1 sequence (P62942 whole entry V56G, the tested form may be a part): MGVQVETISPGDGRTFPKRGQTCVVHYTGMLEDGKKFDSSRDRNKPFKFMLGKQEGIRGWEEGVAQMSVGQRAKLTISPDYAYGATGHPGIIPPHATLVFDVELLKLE
T1 sequence (P42345 2012-2144 limits assumed): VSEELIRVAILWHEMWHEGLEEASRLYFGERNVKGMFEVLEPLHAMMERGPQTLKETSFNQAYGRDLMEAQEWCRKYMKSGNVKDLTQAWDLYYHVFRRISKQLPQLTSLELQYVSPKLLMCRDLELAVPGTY
Method: TR-FRET assay was performed using recommended conditions from Cisbio with slight modifications. FKBP12-HA, FKBP12 V55G-HA, and GST-mTORFRB recombinant proteins were each diluted to 5 nM in assay buffer (20 mM HEPES pH 7.5, 150 mM NaCl, 0.05% Tween-20, 0.1% bovine serum albumin [BSA], 0.5 mM dithiothreitol [DTT]). Anti-GST-Tb (Cisbio) and Anti-HA-XL665 (Cisbio) were diluted to 0.625 µg/mL and 5 µg/mL, respectively, in assay buffer. Rapa* compounds and FK506 were diluted to 50 µM and rapamycin to 5 µM in assay buffer containing 5% DMSO, and threefold serial dilution series were made from these solutions. We mixed 4 µL diluted FKBP12-HA protein, 4 µL diluted GST-mTORFRB, and 4 µL of compound or DMSO control in a well of a black low-volume 384-well plate (Corning 4514), and the mixture was incubated at room temperature for 1 h. We then added 4 µL of Anti-GST-Tb, and 4 µL Anti-HA-XL665, and the mixture was incubated at room temperature for an additional 1 h. Time-resolved fluorescence was read on a Tecan Spark 20M plate reader with the following parameters: Lag time: 60 µs; Integration time: 500 µs; Read A: Excitation filter 320 ([25]) nm, Emission filter 610 ([25]) nm, Gain 130; Read B: Excitation filter 320 ([25]) nm, Emission filter 665 ([8]) nm, Gain 165. Three replicates were performed for each assay condition. […]
Human FKBP12 coding sequence was cloned a pET-47b bacterial expression vector using Gibson assembly and a C-terminal HA-tag was added by QuickChange PCR. FKBP12 proteins were expressed as 8xHis fusions in E. coli BL21 (DE3) cells. […] Samples were then purified by size exclusion chromatography, concentrated to 10-20 mg/mL, and snap frozen in liquid nitrogen. pGEX-2T FRB was a gift from Jie Chen (Addgene plasmid #26607). mTOR FRB was expressed as a GST-fusion and purified as previously described (1). […]
PAMPA was performed by Quintara Discovery as described previously (2). Compounds were analyzed at 100 µM in PBS and measured using liquid chromatography-mass spectrometry (LC-MS) after 5 hours. […] Compounds were analyzed at 10 µM and measured by LC-MS after 1 hour.

[2] = PAMPA membrane permeability; type: in vitro ADME; details: 100 µM in PBS, LC-MS
Method: PAMPA and Caco-2 membrane permeability assays
PAMPA was performed by Quintara Discovery as described previously (2). Compounds were
analyzed at 100 µM in PBS and measured using liquid chromatography-mass spectrometry (LC-

[3] = tested on: MCF7 cells (with/without FKBP12 V55G-HA; mTOR F2108L); experiment: Cell growth by CellTiter-Glo in MCF7 cells; type: cell-based, human; details: 72 h treatment
Method: All cell lines were maintained in DMEM (Gibco) supplemented with 10% heat-inactivated FBS (Axenia Biologix) at 37 °C in 5% CO2. Flp-In T-REx 293 cells were obtained from Thermo Fisher supplemented with 15 µg/mL blasticin and 100 µg/mL Zeocin. Flp-In T-REx 293 FKBP12 V55G cells were supplemented with 15 µg/mL blasticin and 150 µg/mL hygromycin B. FKBP12 V55G expression was induced with 1 µg/mL doxycycline 24 h prior to drug treatments. MCF7 cells were obtained from ATCC (American Type Culture Collection), and MCF7 mTOR F2108L cells were described previously ([30]). When indicated, cells were treated with drugs at 60–80% confluency at a final DMSO concentration of 0.1%. At the end of the treatment period, cells were placed on ice and washed once with PBS. […] Lysate concentration was determined by Bradford assay (Thermo Fisher) and adjusted to 2 mg/mL with additional RIPA buffer. […]
Cells were seeded into 96-well tissue-culture treated plates (Greiner) and were allowed to incubate for 24 h. […] Cell viability was assessed by CellTiter-Glo (Promega). […] Luminescence was measured on a Tecan Spark 20M. […]
Human FKBP12 coding sequence was cloned a pET-47b bacterial expression vector using Gibson assembly and a C-terminal HA-tag was added by QuickChange PCR. FKBP12 proteins were expressed as 8xHis fusions in E. coli BL21 (DE3) cells. […]

[4] = Bidirectional Caco-2 cell permeability; type: in vitro ADME; details: human, LC-MS
Method: PAMPA and Caco-2 membrane permeability assays […]
MS) after 5 hours. Bidirectional Caco-2 cell permeability assay was performed by Quintara
Discovery. Compounds were analyzed at 10 µM and measured by LC-MS after 1 hour.

## CCO/N=C1/C[C@@H]([C@H](C)C[C@@H]2CC[C@@H](O)[C@H](OC)C2)OC(=O)[C@@H]2CCCCN2C(=O)C(=O)[C@]2(O)O[C@@H](CC[C@H]2C)C[C@H](OC)/C(C)=C/C=C/C=C/[C@@H](C)C[C@@H](C)C(=O)[C@H](OC)[C@H](O)/C(C)=C/[C@H]1C [Rapa*-3Z]
[1]
  EC50: 11.8 nM
[2]
  Papp at 5 h, 100 µM: 0.053 ×10⁻⁶ cm/s
[3]; CellTiter-Glo
  Cell growth inhibition, MCF7 cells with and without FKBP12 V55G: activity was restricted to the mutant FKBP12-expressing cells
[3]; rapamycin resistance mutation
  Cell growth, MCF7 mTOR F2108L cells: had no effect on the growth of these cells
[4]
  Papp A→B at 1 h, 10 µM: < 0.5 ×10⁻⁶ cm/s
  Papp B→A at 1 h, 10 µM: 1 ×10⁻⁶ cm/s

Reference: PMC9499525, “Tissue-restricted inhibition of mTOR using chemical genetics” (Proceedings of the National Academy of Sciences of the …, 2022)
